Measurements published in patent US7420001B2 (Wyeth, priority 2003, dated 2008).
Counter-ions that a name gives are not always drawn. Like-named read-outs stand apart in the source and are kept apart here.

Columns and labels:
MMP-2 = target: T1, MMP-2 (Homo sapiens, UniProt P08253); assay: In-vitro fluorescence assay of MMP-2 activity; format: biochemical; conditions: recombinant human MMP-2; read-out: MMP-2 IC50
T1 construct: purchased Oncogene Research Products (Calbiochem) PF023
T1 sequence (P08253 110-660): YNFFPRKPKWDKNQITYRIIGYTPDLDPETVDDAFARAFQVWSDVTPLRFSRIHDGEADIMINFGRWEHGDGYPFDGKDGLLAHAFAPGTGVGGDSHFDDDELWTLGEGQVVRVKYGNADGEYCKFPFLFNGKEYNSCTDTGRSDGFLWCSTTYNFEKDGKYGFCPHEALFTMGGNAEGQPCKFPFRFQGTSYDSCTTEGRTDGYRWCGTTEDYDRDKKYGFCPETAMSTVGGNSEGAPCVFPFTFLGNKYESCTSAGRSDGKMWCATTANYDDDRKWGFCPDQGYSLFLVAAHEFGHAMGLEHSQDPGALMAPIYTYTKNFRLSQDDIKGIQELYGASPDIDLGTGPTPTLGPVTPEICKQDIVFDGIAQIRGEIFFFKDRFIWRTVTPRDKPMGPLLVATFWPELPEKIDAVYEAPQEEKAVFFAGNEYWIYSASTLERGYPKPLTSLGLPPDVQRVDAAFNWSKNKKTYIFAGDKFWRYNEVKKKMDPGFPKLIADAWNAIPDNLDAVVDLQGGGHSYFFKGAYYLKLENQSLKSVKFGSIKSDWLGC
Description: A continuous assay was used in which the substrate is a synthetic peptide containing a fluorescent group (7-methoxycoumarin; Mca) which is quenched by energy transfer to a 2,4-dinitrophenyl group. […] The source of enzyme in the assay was the recombinant human MMP-2 (66 kDa) purchased from Oncogene Research Products (catalog number PF023 from Calbiochem). The substrate used was Mca-PQGL-(3-[2,4-dinitrophenyl]-L-2,3-diaminopropionyl)-AR-OH (denoted as Wammp-5, custom synthesized by AnaSpec, Inc.). The assay buffer consisted of 50 mM Hepes (pH 7.4), 100 mM NaCl, 5 mM CaCl2, and 0.005% Brij-35. […] The enzymatic reactions were initiated by adding the substrate to a final concentration of 20 μM, and mixing 10 times with a pipette. The final DMSO concentration in the assay was 6.0%.
Plots of the inhibitor concentration vs. the percent inhibition were fit to the following equation: y=(a−d)/[1+(x/c)^b]+d, a general sigmoidal curve with Hill slope, a to d. x is the inhibitor concentration under test. y is the percent inhibition. a is the limiting response as x approaches zero. As x increases without bound, y tends toward its limit d. c is the inflection point (IC50) for the curve. That is, y is halfway between the lower and upper asymptotes when x=c. b is the slope factor or Hill coefficient.

MMP-13 = target: T2, MMP-13 (Homo sapiens, UniProt P45452); assay: In-vitro fluorescence assay of MMP-13 activity; format: biochemical
T2 construct: made in house

[1] = recombinant human catalytic domain of MMP-13, read-out: MMP-13 IC50

With `COc1c(C#N)ccc2oc(COc3ccc(-c4ccc(S(=O)(=O)N[C@H](C(=O)O)C(C)C)cc4)cc3)c(C)c12` [Example 143, L-2-[4′-(5-Cyano-4-methoxy-3-methylbenzofuran-2-ylmethoxy)-biphenyl-4-sulfonylamino]-3-methyl butyric acid] the IC50 (MMP-2) was 64 nM and the IC50 (MMP-13; [1]) was 1.2 nM.

Compound `CCc1cccc2oc(COc3ccc(-c4ccc(S(=O)(=O)N[C@H](C(=O)O)C(C)C)cc4)cc3)c(C)c12` [Example 146, L-2-[4′-(4-Ethyl-3-methylbenzofuran-2-ylmethoxy)-biphenyl-4-sulfonylamino]-3-methyl butyric acid] has an IC50 (MMP-2) of 207 nM and an IC50 (MMP-13; [1]) of 1.2 nM.

For `COCCc1cccc2oc(C(=O)Nc3ccc(-c4ccc(S(=O)(=O)N[C@H](C(=O)O)C(C)C)cc4)cc3)c(C)c12` [Example 102, N-{[4′-({[4-(2-methoxyethyl)-3-methyl-1-benzofuran-2-yl]carbonyl}amino)-1,1′-biphenyl-4-yl]sulfonyl}-L-valinate], the IC50 (MMP-2) was 1520 nM and the IC50 (MMP-13; [1]) was 5.7 nM.

`COc1c(Cl)cc(Cl)c2oc(C(=O)Nc3ccc(-c4ccc(S(=O)(=O)N[C@H](C(=O)O)C(C)C)cc4)cc3)c(C)c12` [Example 117, (S)-2-{4′-[(5,7-Dichloro-4-methoxy-3-methyl-benzofuran-2-carbonyl)-amino]-biphenyl-4-sulfonylamino}-3-methyl-butyric acid] showed an IC50 (MMP-2) of 20000 nM and an IC50 (MMP-13; [1]) of 199 nM.

For `CC(=O)N(C)c1cccc2oc(C(=O)Nc3ccc(-c4ccc(S(=O)(=O)N[C@H](C(=O)O)C(C)C)cc4)cc3)c(C)c12` [Example 55, L-2-(4′-{[4-(Acetyl-methyl-amino)-3-methyl-benzofuran-2-carbonyl]-amino}-biphenyl-4-sulfonylamino)-3-methyl-butyric acid], the IC50 (MMP-2) was 2380 nM and the IC50 (MMP-13; [1]) was 20 nM.

Work on `C=Cc1cccc2oc(C(=O)Nc3ccc(-c4ccc(S(=O)(=O)N(C)[C@H](C(=O)O)C(C)C)cc4)cc3)c(C)c12` [Example 98, N-methyl-N-[(4′-{[(3-methyl-4-vinyl-1-benzofuran-2-yl)carbonyl]amino}-1,1′-biphenyl-4-yl)sulfonyl]-L-valine] yielded an IC50 (MMP-2) of 890 nM and an IC50 (MMP-13; [1]) of 84.1 nM.

`Cc1c(C(=O)Nc2ccc(-c3ccc(S(=O)(=O)N[C@H](C(=O)O)C(C)C)cc3)cc2)oc2cccc(C3COC(C)(C)O3)c12` (stereo partly drawn) [Example 91, N-{[4′-({[4-(2,2-Dimethyl-1,3-dioxolan-4-yl)-3-methyl-1-benzofuran-2-yl]carbonyl}amino)-1,1′-biphenyl-4-yl]sulfonyl}-L-valine] gave an IC50 (MMP-2) of 2230 nM and an IC50 (MMP-13; [1]) of 6.9 nM.

`CC(C)Oc1cccc2oc(C(=O)Nc3ccc(-c4ccc(S(=O)(=O)N[C@H](C(=O)O)C(C)C)cc4)cc3)cc12` [Example 103, N-[(4′-{[(4-Isopropoxy-1-benzofuran-2-yl)carbonyl]amino}-1,1′-biphenyl-4-yl)sulfonyl]-L-valine] gave an IC50 (MMP-2) of 78.4 nM and an IC50 (MMP-13; [1]) of 3.9 nM.

`CC(C)C(NS(=O)(=O)c1ccc(-c2ccc(NC(=O)c3cc4cc(NS(C)(=O)=O)ccc4o3)cc2)cc1)C(=O)O` (stereo in doubt) [Example 8, N-({4′-[({5-[(methylsulfonyl)amino]-1-benzofuran-2-yl}carbonyl)amino]-1,1′-biphenyl-4-yl}sulfonyl)-L-valine] gave an IC50 (MMP-2) of 3.9 nM and an IC50 (MMP-13; MMP-13 IC50, recombinant human catalytic domain of MMP-13) of 0.4 nM.

In the case of `Cc1cccc2oc(C(=O)Nc3ccc(-c4ccc(S(=O)(=O)N[C@H](C(=O)O)C(C)C)cc4)cc3)nc12` [Example 128, (S)-3-Methyl-2-{4′-[(4-methyl-benzooxazole-2-carbonyl)-amino]-biphenyl-4-sulfonylamino}-butyric acid], the IC50 (MMP-2) is reported as 59.5 nM and the IC50 (MMP-13; [1]) is reported as 2.8 nM.

Compound `COc1c(C#N)ccc2oc(C(=O)Nc3ccc(-c4ccc(S(=O)(=O)N[C@H](C(=O)O)C(C)C)cc4)cc3)c(C)c12` [Example 124, (S)-2-{4′-[(5-Cyano-4-methoxy-3-methyl-benzofuran-2-carbonyl)-amino]-biphenyl-4-sulfonylamino}-3-methyl-butyric acid] has an IC50 (MMP-2) of 522 nM and an IC50 (MMP-13; [1]) of 3 nM.

Compound `COC(C)c1cccc2oc(C(=O)Nc3ccc(-c4ccc(S(=O)(=O)N[C@H](C(=O)O)C(C)C)cc4)cc3)c(C)c12` (stereo partly drawn) [Example 101, N-{[4′-({[4-(1-methoxyethyl)-3-methyl-1-benzofuran-2-yl]carbonyl}amino)-1,1′-biphenyl-4-yl]sulfonyl}-L-valine] has an IC50 (MMP-2) of 2000 nM and an IC50 (MMP-13; [1]) of 5.8 nM.

`Cc1c(C(=O)Nc2ccc(-c3ccc(S(=O)(=O)N[C@H](C(=O)O)C(C)O)cc3)cc2)oc2cccc(NS(C)(=O)=O)c12` (stereo partly drawn) [Example 65, L-3-Hydroxy-2-{4′-[(4-methanesulfonylamino-3-methyl-benzofuran-2-carbonyl)-amino]-biphenyl-4-sulfonylamino}-butyric acid] was tested, and the IC50 (MMP-2) was 2470 nM and the IC50 (MMP-13; [1]) was 10.9 nM.

Compound `COc1cccc2oc(C(=O)Nc3ccc(-c4ccc(S(=O)(=O)N[C@H](C(=O)O)C(C)C)cc4)cc3)cc12` [Example 11, N-[(4′-{[(4-methoxy-1-benzofuran-2-yl)carbonyl]amino}-1,1′-biphenyl-4-yl)sulfonyl]-L-valine] has an IC50 (MMP-2) of 16 nM and an IC50 (MMP-13; [1]) of 2.3 nM.

With `COCc1cccc2oc(C(=O)Nc3ccc(-c4ccc(S(=O)(=O)N[C@H](C(=O)O)C(C)C)cc4)cc3)c(C)c12` [Example 100, N-{[4′-({[4-(methoxymethyl)-3-methyl-1-benzofuran-2-yl]carbonyl}amino)-1,1′-biphenyl-4-yl]sulfonyl}-L-valine] the IC50 (MMP-2) was 2400 nM and the IC50 (MMP-13; [1]) was 2.6 nM.

Work on `CCc1ccc2oc(C(=O)Nc3ccc(-c4ccc(S(=O)(=O)N[C@H](C(=O)O)C(C)C)cc4)cc3)c(C)c2c1OCc1ccccc1` [Example 89, N-{[4′-({[4-(Benzyloxy)-5-ethyl-3-methyl-1-benzofuran-2-yl]carbonyl}amino)-1,1′-biphenyl-4-yl]sulfonyl}-L-valine] yielded an IC50 (MMP-2) of 4340 nM and an IC50 (MMP-13; [1]) of 67 nM.

`CCc1ccc2oc(C(=O)Nc3ccc(-c4ccc(S(=O)(=O)N[C@H](C(=O)O)C(C)C)cc4)cc3)c(C)c2c1OC` [Example 86, N-[(4′-{[(5-Ethyl-4-methoxy-3-methyl-1-benzofuran-2-yl)carbonyl]amino}-1,1′-biphenyl-4-yl)sulfonyl]-L-valine] gave an IC50 (MMP-2) of 2500 nM and an IC50 (MMP-13; [1]) of 3.8 nM.

With `Cc1c(C(=O)Nc2ccc(-c3ccc(S(=O)(=O)N[C@H](C(=O)O)C(C)C)cc3)cc2)oc2cccc(CCCC(C)C)c12` [Example 29, L-3-Methyl-2-(4′-{[3-methyl-4-(4-methyl-pentyl)-benzofuran-2-carbonyl]-amino}-biphenyl-4-sulfonylamino)-butyric acid] the IC50 (MMP-2) was 9320 nM and the IC50 (MMP-13; [1]) was 37 nM.

Compound `Cc1c(C(=O)Nc2ccc(-c3ccc(S(=O)(=O)N[C@H](C(=O)O)C(C)C)cc3)cc2)oc2cccc(CCCN(C)C)c12` [Example 32, L-2-(4′-{[4-(3-Dimethylamino-propyl)-3-methyl-benzofuran-2-carbonyl]-animo}-biphenyl-4-sulfonylamino)-3-methyl-butyric acid] has an IC50 (MMP-2) of 3150 nM and an IC50 (MMP-13; [1]) of 21 nM.

With `CCC(=O)Nc1cccc2oc(C(=O)Nc3ccc(-c4ccc(S(=O)(=O)N[C@H](C(=O)O)C(C)C)cc4)cc3)c(C)c12` [Example 49, L-3-Methyl-2-{4′-[(3-methyl-4-propionylamino-benzofuran-2-carbonyl)-amino]-biphenyl-4-sulfonylamino}-butyric acid] the IC50 (MMP-2) was 5770 nM and the IC50 (MMP-13; [1]) was 35 nM.

`Cc1c(C(=O)Nc2ccc(-c3ccc(S(=O)(=O)N[C@H](C(=O)O)C(C)C)cc3)cc2)oc2cccc(C#CCC(C)C)c12` [Example 28, L-3-Methyl-2-(4′-{[3-methyl-4-(4-methyl-pent-1-ynyl)-benzofuran-2-carbonyl]-amino}-biphenyl-4-sulfonylamino)-butyric acid] showed an IC50 (MMP-2) of 6640 nM and an IC50 (MMP-13; [1]) of 47 nM.

`CCc1ccc2oc(C(=O)Nc3ccc(-c4ccc(S(=O)(=O)N[C@H](C(=O)O)C(C)C)cc4)cc3)c(C)c2c1O` [Example 90, N-[(4′-{[(5-Ethyl-4-hydroxy-3-methyl-1-benzofuran-2-yl)carbonyl]amino}-1,1′-biphenyl-4-yl)sulfonyl]-L-valine] showed an IC50 (MMP-2) of 1760 nM and an IC50 (MMP-13; [1]) of 7.1 nM.

`CNC(=O)c1cccc2oc(C(=O)Nc3ccc(-c4ccc(S(=O)(=O)N[C@H](C(=O)O)C(C)C)cc4)cc3)c(C)c12` [Example 43A, (L-3-methyl-2-{4′-[(3-methyl-4-methylcarbamoyl-benzofuran-2-carbonyl)-amino]-biphenyl-4-sulfonylamino}-butyric acid triethylamine salt] gave an IC50 (MMP-2) of 6720 nM and an IC50 (MMP-13; [1]) of 22 nM.

`Cc1c(C(=O)Nc2ccc(-c3ccc(S(=O)(=O)N[C@H](C(=O)O)C(C)C)cc3)cc2)oc2cccc(N(C)C)c12` [Example 62, L-2-{4′-[(4-Dimethylamino-3-methyl-benzofuran-2-carbonyl)-amino]-biphenyl-4-sulfonylamino}-3-methyl-butyric acid] was tested, and the IC50 (MMP-2) was 5110 nM and the IC50 (MMP-13; [1]) was 6.5 nM.

`Cc1c(C(=O)Nc2ccc(-c3ccc(S(=O)(=O)N[C@H](C(=O)O)C(C)C)cc3)cc2)oc2cccc(NC(=O)C(F)(F)F)c12` [Example 67, L-3-Methyl-2-(4′-{[3-methyl-4-(2,2,2-trifluoro-acetylamino)-benzofuran-2-carbonyl]-amino}-biphenyl-4-sulfonylamino)-butyric acid] gave an IC50 (MMP-2) of 5750 nM and an IC50 (MMP-13; [1]) of 20 nM.
